From patent US12509444B2, “Compounds and methods for CD73 modulation and indications therefor” (Plexxikon Inc., priority 2019, dated 2025)

Legend:
[1] = biological target: T1, Human CD73 (amino acid residues 27-549) (Homo sapiens, UniProt P21589); test: CD73 enzymatic assay (luciferase-based indirect assay, CellTiter-Glo); assay type: biochemical; settings: 0.4 nM CD73, 150 μM AMP, 1 hour at room temperature
T1 construct: Human CD73 (amino acid residues 27-549); His tag (N); made in house; host or cells: E. coli
T1 sequence (P21589 27-549): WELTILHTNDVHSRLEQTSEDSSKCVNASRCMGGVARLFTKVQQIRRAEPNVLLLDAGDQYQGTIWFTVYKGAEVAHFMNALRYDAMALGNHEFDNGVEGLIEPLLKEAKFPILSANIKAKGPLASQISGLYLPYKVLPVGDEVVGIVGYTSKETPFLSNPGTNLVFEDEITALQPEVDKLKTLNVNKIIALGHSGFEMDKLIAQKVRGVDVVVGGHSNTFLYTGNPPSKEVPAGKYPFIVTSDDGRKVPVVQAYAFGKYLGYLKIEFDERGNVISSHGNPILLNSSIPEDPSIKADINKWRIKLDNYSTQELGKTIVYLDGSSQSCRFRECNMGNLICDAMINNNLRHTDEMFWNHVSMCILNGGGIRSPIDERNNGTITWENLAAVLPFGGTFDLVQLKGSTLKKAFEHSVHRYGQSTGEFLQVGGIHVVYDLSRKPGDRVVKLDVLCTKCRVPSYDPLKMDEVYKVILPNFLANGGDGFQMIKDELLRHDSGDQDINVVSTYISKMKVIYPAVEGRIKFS
In short: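 His-tagged human CD73 (27-549) from E. coli, 0.4 nM, with 150 μM AMP in 50 mM HEPES pH 7.4, 0.01% Tween 20; 1 h at room temperature. AMP remaining read by CellTiter-Glo 2.0 luminescence with 1 μM final ATP after 30 min. IC50 from nonlinear regression of % inhibition.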

[2] = biological target: T2, human CD73 (Homo sapiens, UniProt P21589); test: Inhibitor activity against CD73 in cell based assay (CD73 expressing CHO-K1 cells); settings: CHO-K1 cells expressing human CD73, 150 μM AMP, 4 hours of incubation; read-out: CHO-K1 CELL VARIANT: CD73 IC50
T2 construct: expressed in transfected cells
T2 sequence (P21589 27-549): T1 sequence (P21589 27-549)
In short: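 Stably transfected CHO-K1 cells expressing human CD73 (1×10^4/well) incubated 4 h with compound (8-point 1:3 titration, top 10 μM final, 0.2% DMSO) and 150 μM AMP. Residual AMP in supernatant measured by CellTiter-Glo luminescence with 1 μM ATP after 30 min at room temperature; IC50 by nonlinear regression of percent inhibition vs high/low controls.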

IC50 [1] | IC50 [2] | SMILES
0.001 to 10 µM | 0.001 to 10 µM | CCOC(=O)NCC(=O)N1CCC(NC(=O)O[C@@H]2CCN(c3cn[nH]c(=O)c3Cl)C2)CC1 [P-0162, ethyl (R)-(2-(4-((((1-(5-chloro-6-oxo-1,6-dihydropyridazin-4-yl)pyrrolidin-3-yl)oxy)carbonyl)amino)piperidin-1-yl)-2-oxoethyl) carbamate]
0.001 to 10 µM | 0.001 to 10 µM | CS(=O)(=O)NCC(=O)N1CCC(NC(=O)O[C@@H]2CCN(c3cn[nH]c(=O)c3Cl)C2)CC1 [P-0163, (R)-1-(5-chloro-6-oxo-1,6-dihydropyridazin-4-yl)pyrrolidin-3-yl (1-((methylsulfonyl)glycyl)piperidin-4-yl)carbamate]
0.001 to 10 µM | 0.001 to 10 µM | O=C(CO)N[C@H]1CC[C@H](NC(=O)O[C@@H]2CCN(c3cn[nH]c(=O)c3Cl)C2)CC1 [P-0164, (R)-1-(5-chloro-6-oxo-1,6-dihydropyridazin-4-yl)pyrrolidin-3-yl ((1r,4R)-4-(2-hydroxyacetamido)cyclohexyl) carbamate]
0.001 to 10 µM | 0.001 to 10 µM | CC(=O)N[C@H]1CC[C@H](NC(=O)O[C@@H]2CCN(c3cn[nH]c(=O)c3Cl)C2)CC1 [P-0165, (R)-1-(5-chloro-6-oxo-1,6-dihydropyridazin-4-yl)pyrrolidin-3-yl ((1r,4R)-4-acetamidocyclohexyl)carbamate]
0.001 to 10 µM | 0.001 to 10 µM | N#Cc1c(N2CC[C@@H](OC(=O)NC3CCNCC3)C2)cn[nH]c1=O [P-0166, (R)-1-(5-cyano-6-oxo-1,6-dihydropyridazin-4-yl)pyrrolidin-3-yl piperidin-4-ylcarbamate]
0.001 to 10 µM | 0.001 to 10 µM | N[C@H]1C[C@H](NC(=O)O[C@@H]2CCN(c3cn[nH]c(=O)c3Cl)C2)C1 [P-0167, (R)-1-(5-chloro-6-oxo-1,6-dihydropyridazin-4-yl)pyrrolidin-3-yl ((1r,3R)-3-aminocyclobutyl)carbamate]
0.001 to 10 µM | 0.001 to 10 µM | O=C(Nc1ccc(F)cc1)N[C@H]1C[C@H](NC(=O)O[C@@H]2CCN(c3cn[nH]c(=O)c3Cl)C2)C1 [P-0168, (R)-1-(5-chloro-6-oxo-1,6-dihydropyridazin-4-yl)pyrrolidin-3-yl ((1r,3R)-3-(3-(4-fluorophenyl)ureido)cyclobutyl) carbamate]
0.001 to 10 µM | 0.001 to 10 µM | CCOC(=O)N[C@H]1C[C@H](NC(=O)O[C@@H]2CCN(c3cn[nH]c(=O)c3Cl)C2)C1 [P-0169, (R)-1-(5-chloro-6-oxo-1,6-dihydropyridazin-4-yl)pyrrolidin-3-yl ethyl ((1R,3r)-cyclobutane-1,3-diyl)dicarbamate]
0.001 to 10 µM | 0.001 to 10 µM | CS(=O)(=O)N[C@H]1C[C@H](NC(=O)O[C@@H]2CCN(c3cn[nH]c(=O)c3Cl)C2)C1 [P-0170, (R)-1-(5-chloro-6-oxo-1,6-dihydropyridazin-4-yl)pyrrolidin-3-yl ((1r,3R)-3-(methylsulfonamido)cyclobutyl)carbamate]
0.001 to 10 µM | 0.001 to 10 µM | O=C(N[C@H]1C[C@H](NS(=O)(=O)c2ccccc2)C1)O[C@@H]1CCN(c2cn[nH]c(=O)c2Cl)C1 [P-0171, (R)-1-(5-chloro-6-oxo-1,6-dihydropyridazin-4-yl)pyrrolidin-3-yl ((1r,3R)-3-(phenylsulfonamido)cyclobutyl) carbamate]
0.001 to 10 µM | 0.001 to 10 µM | O=CN[C@H]1C[C@H](NC(=O)O[C@@H]2CCN(c3cn[nH]c(=O)c3Cl)C2)C1 [P-0172, (R)-1-(5-chloro-6-oxo-1,6-dihydropyridazin-4-yl)pyrrolidin-3-yl ((1r,3R)-3-formamidocyclobutyl) carbamate]
0.001 to 10 µM | 0.001 to 10 µM | O=C(NC1CCCC1)N[C@H]1CC[C@H](NC(=O)O[C@@H]2CCN(c3cn[nH]c(=O)c3Cl)C2)CC1 [P-0173, (R)-1-(5-chloro-6-oxo-1,6-dihydropyridazin-4-yl)pyrrolidin-3-yl ((1r,4R)-4-(3-cyclopentylureido)cyclohexyl) carbamate]
0.001 to 10 µM | 0.001 to 10 µM | O=C(NC1CCCCC1)N[C@H]1CC[C@H](NC(=O)O[C@@H]2CCN(c3cn[nH]c(=O)c3Cl)C2)CC1 [P-0174, (R)-1-(5-chloro-6-oxo-1,6-dihydropyridazin-4-yl)pyrrolidin-3-yl ((1r,4R)-4-(3-cyclohexylureido)cyclohexyl) carbamate]
0.001 to 10 µM | 0.001 to 10 µM | O=C(N[C@H]1CC[C@H](NS(=O)(=O)c2ccc(F)cc2)CC1)O[C@@H]1CCN(c2cn[nH]c(=O)c2Cl)C1 [P-0175, (R)-1-(5-chloro-6-oxo-1,6-dihydropyridazin-4-yl)pyrrolidin-3-yl ((1r,4R)-4-((4-fluorophenyl)sulfonamido)cyclohexyl)carbamate]
0.001 to 10 µM | 0.001 to 10 µM | O=C(N[C@H]1CC[C@H](NS(=O)(=O)c2ccccc2F)CC1)O[C@@H]1CCN(c2cn[nH]c(=O)c2Cl)C1 [P-0176, (R)-1-(5-chloro-6-oxo-1,6-dihydropyridazin-4-yl)pyrrolidin-3-yl ((1r,4R)-4-((2-fluorophenyl)sulfonamido)cyclohexyl)carbamate]
0.001 to 10 µM | 0.001 to 10 µM | O=C(NCC1(CCl)CC(NC(=O)O[C@@H]2CCN(c3cn[nH]c(=O)c3Cl)C2)C1)Nc1ccc(F)cc1 (stereo partly drawn) [P-0177, (R)-1-(5-chloro-6-oxo-1,6-dihydropyridazin-4-yl)pyrrolidin-3-yl (3-(chloromethyl)-3-((3-(4-fluorophenyl)ureido)methyl)cyclobutyl)carbamate]
0.001 to 10 µM | 0.001 to 10 µM | O=C(Nc1ccc(F)cc1)N[C@H]1CC[C@H](NC(=O)O[C@@H]2CCN(c3cn[nH]c(=O)c3Cl)C2)CC1 [P-0178, (R)-1-(5-chloro-6-oxo-1,6-dihydropyridazin-4-yl)pyrrolidin-3-yl ((1r,4R)-4-(3-(4-fluorophenyl)ureido)cyclohexyl)carbamate]
0.001 to 10 µM | 0.001 to 10 µM | COC(=O)[C@H]1CC[C@@H](NC(=O)O[C@@H]2CCN(c3cn[nH]c(=O)c3Cl)C2)CC1 [P-0179, methyl (1S,4s)-4-(((((R)-1-(5-chloro-6-oxo-1,6-dihydropyridazin-4-yl)pyrrolidin-3-yl)oxy)carbonyl)amino) cyclohexane-1-carboxylate]
0.001 to 10 µM | 10 to 100 µM | O=C(N[C@H]1CC[C@@H](C(=O)O)CC1)O[C@@H]1CCN(c2cn[nH]c(=O)c2Cl)C1 [P-0180, (1S,4s)-4-(((((R)-1-(5-chloro-6-oxo-1,6-dihydropyridazin-4-yl)pyrrolidin-3-yl)oxy)carbonyl)amino) cyclohexane-1-carboxylic acid]
0.001 to 10 µM | 0.001 to 10 µM | NC(=O)[C@H]1CC[C@@H](NC(=O)O[C@@H]2CCN(c3cn[nH]c(=O)c3Cl)C2)CC1 [P-0181, (R)-1-(5-chloro-6-oxo-1,6-dihydropyridazin-4-yl)pyrrolidin-3-yl ((1s,4S)-4-carbamoylcyclohexyl) carbamate]
0.001 to 10 µM | 0.001 to 10 µM | CCCNC(=O)[C@H]1CC[C@@H](NC(=O)O[C@@H]2CCN(c3cn[nH]c(=O)c3Cl)C2)CC1 [P-0182, (R)-1-(5-chloro-6-oxo-1,6-dihydropyridazin-4-yl)pyrrolidin-3-yl ((1s,4S)-4-(propylcarbamoyl)cyclohexyl) carbamate]
0.001 to 10 µM | 0.001 to 10 µM | O=C(N[C@H]1CC[C@@H](C(=O)Nc2ccccc2)CC1)O[C@@H]1CCN(c2cn[nH]c(=O)c2Cl)C1 [P-0183, (R)-1-(5-chloro-6-oxo-1,6-dihydropyridazin-4-yl)pyrrolidin-3-yl ((1s,4S)-4-(phenylcarbamoyl)cyclohexyl) carbamate]
0.001 to 10 µM | 0.001 to 10 µM | O=C(N[C@H]1CC[C@H](NC(=O)c2ccccc2)CC1)O[C@@H]1CCN(c2cn[nH]c(=O)c2Cl)C1 [P-0184, (R)-1-(5-chloro-6-oxo-1,6-dihydropyridazin-4-yl)pyrrolidin-3-yl ((1r,4R)-4-benzamidocyclohexyl) carbamate]
0.001 to 10 µM | 0.001 to 10 µM | O=C(N[C@H]1CC[C@@H](NS(=O)(=O)c2ccc(F)cc2)CC1)O[C@@H]1CCN(c2cn[nH]c(=O)c2Cl)C1 [P-0185, (R)-1-(5-chloro-6-oxo-1,6-dihydropyridazin-4-yl)pyrrolidin-3-yl ((1s,4S)-4-((4-fluorophenyl)sulfonamido)cyclohexyl)carbamate]
0.001 to 10 µM | 0.001 to 10 µM | O=C(N[C@H]1CC[C@@H](NC(=O)c2ccccc2)CC1)O[C@@H]1CCN(c2cn[nH]c(=O)c2Cl)C1 [P-0186, (R)-1-(5-chloro-6-oxo-1,6-dihydropyridazin-4-yl)pyrrolidin-3-yl ((1s,4S)-4-benzamidocyclohexyl) carbamate]
